From EP3046573B1, “AMYLIN ANALOGUES” (Zealand Pharma A/S, priority 2013, dated 2015)
pEC50: −log10 of the molar value. Numbered stars: 1 amine (or outer) side, 2 acyl side, 3 side chain; on linkers, the order of the positions; unused ones are H or OH. Bridge positions count the residues as written; N and C are the ends. Square brackets hold non-standard residues; d marks the D form. Peptide text beside a SMILES is read from it. * marks the point of attachment. C20 diacid = O=C(O)CCCCCCCCCCCCCCCCCCC(=O)*; γGlu = O=C(O)[C@H](CCC(=O)[*:2])N[*:1]; Hyp = O=C(O)[C@@H]1C[C@@H](O)CN1; NMeI = CC[C@H](C)[C@H](NC)C(=O)O; Sar = CNCC(=O)O

How the values were obtained:
[1] = Solubility assessment (turbidity absorbance at 325 nm); assay type: physicochemical; settings: stock 2 mg/ml diluted 1:1, ambient temperature (typically 25°C), n=1; for Solubility, Acetate buffer pH 4: 100 mM acetate buffer pH 4.0; for Solubility, Acetate buffer pH 5: 100 mM acetate buffer pH 5.0; for Solubility, Histidine buffer pH 6: 100 mM histidine buffer pH 6.0; for Solubility, Histidine buffer pH 7: 100 mM histidine buffer pH 7.0; for Solubility, Phosphate buffer pH 6: 100 mM phosphate buffer pH 6.0; for Solubility, Phosphate buffer pH 7: 100 mM phosphate buffer pH 7.0; for Solubility, Phosphate buffer pH 7.5: 100 mM phosphate buffer pH7.5
In short: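 Peptide stock (2 mg/ml, water pH 2.5) diluted 1:1 into 100 mM acetate (pH 4.0, 5.0), histidine (pH 6.0, 7.0) or phosphate (pH 6.0–7.5) buffer; absorbance at 325 nm read at about 25°C, n=1. A325 ≤ 0.02 taken as solubility ≥ 1 mg/ml.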

[2] = biological target: T1, human amylin receptor 3 (hAMYR3) consisting of hCTR2 co-expressed with human Receptor Activity Modifying Protein 3 (hRAMP3) (Homo sapiens, UniProt O60896+P30988); test: hAMYR3 assay: induction of cAMP (AlphaScreen cAMP Assay kit) in COS7 cells expressing hAMYR3; assay type: cell-based; settings: cAMP induction in COS7 cells expressing hAMYR3; average of a minimum of 3 determinations; read-out: hAMY R3 EC50
T1 construct: expressed in transfected cells
T1 sequence (P30988 25-474): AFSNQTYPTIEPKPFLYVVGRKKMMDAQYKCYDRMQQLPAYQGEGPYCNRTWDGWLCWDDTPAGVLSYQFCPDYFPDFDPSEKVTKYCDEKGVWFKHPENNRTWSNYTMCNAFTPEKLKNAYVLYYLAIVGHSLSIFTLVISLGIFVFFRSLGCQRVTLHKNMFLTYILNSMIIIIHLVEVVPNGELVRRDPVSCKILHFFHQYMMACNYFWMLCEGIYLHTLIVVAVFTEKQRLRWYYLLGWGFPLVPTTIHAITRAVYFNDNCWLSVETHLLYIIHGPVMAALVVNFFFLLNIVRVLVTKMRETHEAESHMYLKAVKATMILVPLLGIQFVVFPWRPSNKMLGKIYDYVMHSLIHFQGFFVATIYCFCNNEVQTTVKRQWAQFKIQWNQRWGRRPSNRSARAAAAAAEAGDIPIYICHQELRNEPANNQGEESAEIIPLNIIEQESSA
T1 sequence (O60896 24-148 partner): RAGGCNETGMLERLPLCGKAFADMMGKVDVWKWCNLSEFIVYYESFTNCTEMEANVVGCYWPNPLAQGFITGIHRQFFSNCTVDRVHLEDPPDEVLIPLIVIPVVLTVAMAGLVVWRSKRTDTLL
In short: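 Stable COS7 clone co-expressing hCTR2 and hRAMP3, stimulated 15 min at 37° C with increasing peptide in Tyrode buffer pH 7.4 with 100 µM IBMX and 0.1% casein. cAMP measured by AlphaScreen after lysis; EC50 and % efficacy versus pramlintide from 4PL fit.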

[3] = biological target: T2, human calcitonin receptor (hCTR2) (Homo sapiens, UniProt P30988); test: hCTR2 assay: induction of cAMP (AlphaScreen cAMP Assay kit) in COS7 cells expressing hCTR2; assay type: cell-based; settings: cAMP induction in COS7 cells expressing hCTR2; average of a minimum of 3 determinations; read-out: hCTR2 EC50
T2 construct: expressed in transfected cells
T2 sequence (P30988 25-474): T1 sequence (P30988 25-474)
In short: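 Stable hCTR2 clone in RAMP-naive COS7 cells; peptides titrated in Tyrode buffer (pH 7.4) with 100 µM IBMX, 0.1% casein, 15 min at 37° C. cAMP read by AlphaScreen after lysis; EC50 and efficacy relative to pramlintide from 4PL fit.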

Structure (SMILES) | Solubility, Acetate buffer pH 4 [1] | Solubility, Acetate buffer pH 5 [1] | Solubility, Histidine buffer pH 6 [1] | Solubility, Histidine buffer pH 7 [1] | Solubility, Phosphate buffer pH 6 [1] | Solubility, Phosphate buffer pH 7 [1] | Solubility, Phosphate buffer pH 7.5 [1] | pEC50 [2] | pEC50 [3]
CC[C@H](C)[C@@H](C(=O)N[C@@H](CC(C)C)C(=O)N[C@@H](CO)C(=O)N[C@@H](CO)C(=O)N[C@H](C(=O)N[C@@H](CCC(=O)O)C(=O)N[C@H](C(=O)NCC(=O)N[C@@H](CO)C(=O)N[C@@H](CCC(=O)O)C(=O)N[C@H](C(=O)N1C[C@H](O)C[C@H]1C(N)=O)[C@@H](C)O)C(C)C)[C@@H](C)O)N(C)C(=O)CN(C)C(=O)[C@H](Cc1ccccc1)NC(=O)[C@H](CO)NC(=O)[C@H](CO)NC(=O)[C@H](CCCNC(=N)N)NC(=O)[C@H](Cc1c[nH]cn1)NC(=O)[C@H](CC(C)C)NC(=O)[C@H](Cc1ccccc1)NC(=O)[C@H](CCC(=O)O)NC(=O)[C@H](C)NC(=O)[C@H](CC(C)C)NC(=O)[C@H](CCCNC(=N)N)NC(=O)[C@H](CCC(=O)O)NC(=O)[C@@H](NC(=O)[C@H](C)NC(=O)[C@@H]1CSSC[C@H](NC(=O)[C@H](CCCNC(=N)N)NC(=O)CC[C@H](NC(=O)CCCCCCCCCCCCCCCCCCC(=O)O)C(=O)O)C(=O)NCC(=O)N[C@@H]([C@@H](C)O)C(=O)N[C@@H](C)C(=O)N[C@@H]([C@@H](C)O)C(=O)N1)[C@@H](C)O [Compound 167, [19CD]-isoGlu-RC()GTATC()ATERLAEFLHRSSF-Gly(Me)-Ile(Me)-LSSTEVGSET-Hyp-NH2] ({C20 diacid-γGlu}-RCGTATCATERLAEFLHRSSF[Sar][NMeI]LSSTEVGSET[Hyp]-NH2; disulfide 2-7) | SS (SS indicates solubility ≥ 1mg/ml) | SS (SS indicates solubility ≥ 1mg/ml) | SS (SS indicates solubility ≥ 1mg/ml) | SS (SS indicates solubility ≥ 1mg/ml) | SS (SS indicates solubility ≥ 1mg/ml) | SS (SS indicates solubility ≥ 1mg/ml) | SS (SS indicates solubility ≥ 1mg/ml) | 9.96 | 10.11
CC[C@H](C)[C@@H](C(=O)N[C@@H](CC(C)C)C(=O)N[C@@H](CO)C(=O)N[C@@H](CO)C(=O)N[C@H](C(=O)N[C@@H](CCC(=O)O)C(=O)N[C@H](C(=O)NCC(=O)N[C@@H](CO)C(=O)N[C@@H](CCC(=O)O)C(=O)N[C@H](C(=O)N1CCC[C@H]1C(N)=O)[C@@H](C)O)C(C)C)[C@@H](C)O)N(C)C(=O)[C@H](C)NC(=O)CN(C)C(=O)[C@H](Cc1ccccc1)NC(=O)[C@H](CO)NC(=O)[C@H](CO)NC(=O)[C@H](CO)NC(=O)[C@H](CO)NC(=O)[C@H](CCCNC(=N)N)NC(=O)[C@H](Cc1c[nH]cn1)NC(=O)[C@H](CC(C)C)NC(=O)[C@H](Cc1ccccc1)NC(=O)[C@H](CCC(=O)O)NC(=O)[C@H](C)NC(=O)[C@H](CC(C)C)NC(=O)[C@H](CCCNC(=N)N)NC(=O)[C@H](CCC(=O)O)NC(=O)[C@@H](NC(=O)[C@H](C)NC(=O)[C@@H]1CSSC[C@H](NC(=O)[C@H](CCCNC(=N)N)NC(=O)CC[C@H](NC(=O)CCCCCCCCCCCCCCCCCCC(=O)O)C(=O)O)C(=O)N[C@@H](CO)C(=O)N[C@@H]([C@@H](C)O)C(=O)N[C@@H](C)C(=O)N[C@@H]([C@@H](C)O)C(=O)N1)[C@@H](C)O [Compound 135, [19CD]-isoGlu-RC()STATC()ATERLAEFLHRSSSSF-Gly(Me)-A-Ile(Me)-LSSTEVGSETP-NH2] ({C20 diacid-γGlu}-RCSTATCATERLAEFLHRSSSSF[Sar]A[NMeI]LSSTEVGSETP-NH2; disulfide 2-7) | SS (SS indicates solubility ≥ 1mg/ml) | SS (SS indicates solubility ≥ 1mg/ml) | SS (SS indicates solubility ≥ 1mg/ml) | SS (SS indicates solubility ≥ 1mg/ml) | SS (SS indicates solubility ≥ 1mg/ml) | SS (SS indicates solubility ≥ 1mg/ml) | SS (SS indicates solubility ≥ 1mg/ml) | 9.21 | 9.12
